Reference: PMC10066365, “Nemacol is a small molecule inhibitor of C. elegans vesicular acetylcholine transporter with anthelmintic potential” (Nature Communications, 2023)
Several values for one entry are separate records, joined by “and”; a condition that tells them apart may be missing. Equal values may be shown once.

Tested on: C. elegans
Assay: C. elegans motor phenotype scoring on solid media (Punc/jerky-unc, coiled, paralyzed), wild-type young adults
Assay type: in vivo, Caenorhabditis elegans
Conditions: for any phene, mean % fraction of young adults exhibiting any phenotype (coiled, jerky-Unc or paralyzed) / atypical locomotion (number of animals) / coiled (number of animals) / no phene (number of animals) / paralyzed (number of animals): one hour; for any phene, mean % fraction of young adults exhibiting any phenotype (coiled, jerky-Unc or paralyzed): mean of three biological replicates; for atypical locomotion (number of animals) / coiled (number of animals) / no phene (number of animals) / paralyzed (number of animals): young adults, 20 animals per trial, single replicate counts; for AVERAGES Fraction Coiled / AVERAGES Fraction Paralyzed / AVERAGES Fraction Punc: mean of 3 replicates; for Fraction Coiled / Fraction Paralyzed / Fraction Punc: single replicate

With `CCC1CCC(N2CCN(c3ccc([N+](=O)[O-])cc3)CC2)CC1` (centres unmarked) [Nemacol-2] the “any phene, mean % fraction of young adults exhibiting any phenotype (coiled, jerky-Unc or paralyzed)” value (3.75uM) was 29.1667%, the “atypical locomotion (number of animals)” value (3.75uM) was 5 and 8 and 2 and 3 and 9 and the “coiled (number of animals)” value (3.75uM) was 0. For the same compound, the “no phene (number of animals)” value (3.75uM) was 15 and 12 and 18 and 17 and 11, the “paralyzed (number of animals)” value (3.75uM) was 0 and the “NP (number of animals)” value (15 μM, 30 min, adults) was 5 and 7 and 10. For the same compound, the “P (number of animals)” value (15 μM, 30 min, adults) was 0, the “Punc (number of animals)” value (15 μM, 30 min, adults) was 10 and 9 and 8 and the “AVERAGES Fraction Coiled” value (15 μM, 30 min, adults) was 0.0926. The “AVERAGES Fraction Paralyzed” value (15 μM, 30 min, adults) was 0.0, the “AVERAGES Fraction Punc” value (15 μM, 30 min, adults) was 0.5 and the “Fraction Coiled” value (15 μM, 30 min, adults) was 0.167 and 0.111 and 0.0. For the same compound, the “Fraction Paralyzed” value (15 μM, 30 min, adults) was 0.0, the “Fraction Punc” value (15 μM, 30 min, adults) was 0.556 and 0.5 and 0.444 and the “C2 (number of animals)” value (15 μM, 60 min, adults) was 2 and 1. For the same compound, the “P (number of animals)” value (15 μM, 60 min, adults) was 0, the “Punc (number of animals)” value (15 μM, 60 min, adults) was 14 and 15 and the “AVERAGES Fraction Coiled” value (15 μM, 60 min, adults) was 0.13. The “AVERAGES Fraction Paralyzed” value (15 μM, 60 min, adults) was 0.0, the “AVERAGES Fraction Punc” value (15 μM, 60 min, adults) was 0.8 and the “Fraction Coiled” value (15 μM, 60 min, adults) was 0.111 and 0.167. For the same compound, the “Fraction Paralyzed” value (15 μM, 60 min, adults) was 0.0, the “Fraction Punc” value (15 μM, 60 min, adults) was 0.8 and the “C2 (number of animals)” value (15 μM, 90 min, adults) was 1 and 2. The “P (number of animals)” value (15 μM, 90 min, adults) was 0, the “Punc (number of animals)” value (15 μM, 90 min, adults) was 15 and 11 and the “AVERAGES Fraction Coiled” value (15 μM, 90 min, adults) was 0.113. For the same compound, the “AVERAGES Fraction Paralyzed” value (15 μM, 90 min, adults) was 0.0, the “AVERAGES Fraction Punc” value (15 μM, 90 min, adults) was 0.8 and the “Fraction Coiled” value (15 μM, 90 min, adults) was 0.111 and 0.118. For the same compound, the “Fraction Paralyzed” value (15 μM, 90 min, adults) was 0.0, the “Fraction Punc” value (15 μM, 90 min, adults) was 0.8 and 0.647 and the “Punc (number of animals)” value (15 μM, 120 min, adults) was 11 and 7. For the same compound, the “AVERAGES Fraction Coiled” value (15 μM, 120 min, adults) was 0.0741, the “AVERAGES Fraction Paralyzed” value (15 μM, 120 min, adults) was 0.0185 and the “AVERAGES Fraction Punc” value (15 μM, 120 min, adults) was 0.537. The “Fraction Coiled” value (15 μM, 120 min, adults) was 0.0556 and 0.111, the “Fraction Paralyzed” value (15 μM, 120 min, adults) was 0.0 and 0.0556 and the “Fraction Punc” value (15 μM, 120 min, adults) was 0.6 and 0.4. For the same compound, the “C1 (number of animals)” value (15 μM, 240 min, adults) was 0, the “C2 (number of animals)” value (15 μM, 240 min, adults) was 0 and the “NP (number of animals)” value (15 μM, 240 min, adults) was 8 and 12 and 15. The “P (number of animals)” value (15 μM, 240 min, adults) was 0, the “AVERAGES Fraction Coiled” value (15 μM, 240 min, adults) was 0.037 and the “AVERAGES Fraction Paralyzed” value (15 μM, 240 min, adults) was 0.0741. For the same compound, the “AVERAGES Fraction Punc” value (15 μM, 240 min, adults) was 0.6, the “Fraction Coiled” value (15 μM, 240 min, adults) was 0.0 and 0.111 and the “Fraction Paralyzed” value (15 μM, 240 min, adults) was 0.0 and 0.111. For the same compound, the “Fraction Punc” value (15 μM, 240 min, adults) was 0.556 and 0.6, the “C1 (number of animals)” value (15 μM, 360 min, adults) was 0 and the “NP (number of animals)” value (15 μM, 360 min, adults) was 14 and 9 and 17. The “AVERAGES Fraction Coiled” value (15 μM, 360 min, adults) was 0.037, the “AVERAGES Fraction Paralyzed” value (15 μM, 360 min, adults) was 0.0185 and the “AVERAGES Fraction Punc” value (15 μM, 360 min, adults) was 0.2. For the same compound, the “Fraction Coiled” value (15 μM, 360 min, adults) was 0.0 and 0.111, the “Fraction Paralyzed” value (15 μM, 360 min, adults) was 0.0 and 0.0556 and the “Fraction Punc” value (15 μM, 360 min, adults) was 0.222 and 0.333 and 0.0556. The “Next Day Animals alive (moving fine)” value (15 μM, next day, adults) was “alive, recovered”, the “any phene, mean % fraction of young adults exhibiting any phenotype (coiled, jerky-Unc or paralyzed)” value (15uM) was 95.873% and the “atypical locomotion (number of animals)” value (15uM) was 10 and 11 and 18 and 13. For the same compound, the “coiled (number of animals)” value (15uM) was 5 and 2 and 4, the “no phene (number of animals)” value (15uM) was 0 and 2 and 1 and the “paralyzed (number of animals)” value (15uM) was 5 and 2 and 0 and 3. For the same compound, the “C1 (number of animals)” value (30 μM, 30 min, adults) was 3 and 2, the “Punc (number of animals)” value (30 μM, 30 min, adults) was 10 and 11 and 16 and the “AVERAGES Fraction Coiled” value (30 μM, 30 min, adults) was 0.246. For the same compound, the “AVERAGES Fraction Paralyzed” value (30 μM, 30 min, adults) was 0.0185, the “AVERAGES Fraction Punc” value (30 μM, 30 min, adults) was 0.7 and the “Fraction Coiled” value (30 μM, 30 min, adults) was 0.333 and 0.3 and 0.111. The “Fraction Paralyzed” value (30 μM, 30 min, adults) was 0.0556 and 0.0, the “Fraction Punc” value (30 μM, 30 min, adults) was 0.556 and 0.647 and 0.9 and the “NP (number of animals)” value (30 μM, 60 min, adults) was 0. The “Punc (number of animals)” value (30 μM, 60 min, adults) was 7 and 8 and 13, the “AVERAGES Fraction Coiled” value (30 μM, 60 min, adults) was 0.3 and the “AVERAGES Fraction Paralyzed” value (30 μM, 60 min, adults) was 0.167. The “AVERAGES Fraction Punc” value (30 μM, 60 min, adults) was 0.5, the “Fraction Coiled” value (30 μM, 60 min, adults) was 0.4 and 0.333 and 0.222 and the “Fraction Paralyzed” value (30 μM, 60 min, adults) was 0.222 and 0.0556. The “Fraction Punc” value (30 μM, 60 min, adults) was 0.4 and 0.444 and 0.7, the “NP (number of animals)” value (30 μM, 90 min, adults) was 0 and the “P (number of animals)” value (30 μM, 90 min, adults) was 5 and 3. The “Punc (number of animals)” value (30 μM, 90 min, adults) was 8 and 10 and 12, the “AVERAGES Fraction Coiled” value (30 μM, 90 min, adults) was 0.241 and the “AVERAGES Fraction Paralyzed” value (30 μM, 90 min, adults) was 0.2. The “AVERAGES Fraction Punc” value (30 μM, 90 min, adults) was 0.556 and the “Fraction Coiled” value (30 μM, 90 min, adults) was 0.278 and 0.167.
